Reference: ChEMBL document CHEMBL1126994, “Synthesis of myristic acid analogs with anti-HIV activity that may be resistant to metabolic processing by -oxidation” (1993)
Calls of active or inactive are those of the source. No cut-off for these calls is given here.

Experiments:
Homo sapiens = organism: Homo sapiens; experiment: Tested in vitro for the production of acyl-CoA of compound by Acyl-CoA synthetase in human
CCRF-CEM [1] = experiment: Tested for cytotoxicity against HIV-1 uninfected CEM cells; assay type: functional; conditions: Homo sapiens, read-out: TD50 (the source's name)
CCRF-CEM [2] = experiment: Tested for the antiviral activity against HIV-1 infected CEM cells; Value ranges from 1-5; assay type: functional; conditions: Homo sapiens, read-out: ID50 (the source's name)
Pseudomonas = experiment: Tested in vitro for the production of acyl-CoA by Acyl-CoA synthetase in Pseudomonas
[3] = molecular target: T1, Glycylpeptide N-tetradecanoyltransferase 1 (Homo sapiens) (UniProt P30419); experiment: In vitro production of Acylpeptide by human N-myristoyltransferase (NMT) assay
T1 sequence (whole entry): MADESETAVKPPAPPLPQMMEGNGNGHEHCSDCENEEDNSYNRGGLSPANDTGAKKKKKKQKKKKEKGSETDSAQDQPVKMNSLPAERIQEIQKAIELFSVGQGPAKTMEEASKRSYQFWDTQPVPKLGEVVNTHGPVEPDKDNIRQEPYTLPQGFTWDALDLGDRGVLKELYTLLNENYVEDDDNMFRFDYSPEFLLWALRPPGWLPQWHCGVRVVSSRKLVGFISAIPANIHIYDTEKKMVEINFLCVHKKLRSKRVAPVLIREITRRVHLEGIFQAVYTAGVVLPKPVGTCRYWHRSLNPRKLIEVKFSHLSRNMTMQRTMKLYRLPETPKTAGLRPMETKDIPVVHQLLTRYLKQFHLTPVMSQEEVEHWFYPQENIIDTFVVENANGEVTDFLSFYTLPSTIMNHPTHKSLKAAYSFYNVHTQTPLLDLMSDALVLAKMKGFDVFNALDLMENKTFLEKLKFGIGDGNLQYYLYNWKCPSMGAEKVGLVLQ

[4] = molecular target: Glycylpeptide N-tetradecanoyltransferase (Saccharomyces cerevisiae) (UniProt P14743); experiment: Tested in vitro for the production of Acylpeptide by yeast N-myristoyltransferase (NMT) assay
CCRF-CEM [5] = experiment: Tested for the antiviral activity against HIV-1 infected CEM cells; assay type: functional; conditions: Homo sapiens, read-out: ID50 (the source's name)
CCRF-CEM [6] = experiment: Tested for the antiviral activity against HIV-1 infected CEM cells; Value ranges from 9-20; assay type: functional; conditions: Homo sapiens, read-out: ID50 (the source's name)
CCRF-CEM [7] = experiment: Tested for cytotoxicity against HIV-1 uninfected CEM cells; Value ranges from 80-190; assay type: functional; conditions: Homo sapiens, read-out: TD50 (the source's name)
CCRF-CEM [8] = experiment: Tested for the antiviral activity against HIV-1 infected CEM cells; NA means not active; assay type: functional, cell-based; conditions: Homo sapiens

Glycylpeptide N-tetradecanoyltransferase (Saccharomyces cerevisiae), sequence (P14743 whole entry, looked up): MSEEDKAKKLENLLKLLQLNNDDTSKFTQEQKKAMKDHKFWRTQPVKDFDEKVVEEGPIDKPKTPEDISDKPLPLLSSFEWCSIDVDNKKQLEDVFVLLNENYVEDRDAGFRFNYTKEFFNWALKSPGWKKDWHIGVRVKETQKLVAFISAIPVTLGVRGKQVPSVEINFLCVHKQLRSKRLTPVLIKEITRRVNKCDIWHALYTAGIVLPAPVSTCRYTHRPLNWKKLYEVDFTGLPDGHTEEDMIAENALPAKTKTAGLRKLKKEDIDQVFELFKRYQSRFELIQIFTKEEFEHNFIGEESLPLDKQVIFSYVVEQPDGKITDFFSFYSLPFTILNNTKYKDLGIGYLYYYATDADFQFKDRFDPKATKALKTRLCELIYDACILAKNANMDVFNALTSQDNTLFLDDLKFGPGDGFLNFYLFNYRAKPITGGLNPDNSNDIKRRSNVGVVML

Row | Structure (SMILES) | MyristoylCoA (Homo sapiens) | IC50 (CCRF-CEM [2]) | MyristoylCoA (Pseudomonas) | Myristoylpeptide [3] | Myristoylpeptide [4] | IC50 (CCRF-CEM [5]) | IC50 (CCRF-CEM [6]) | CC50 (CCRF-CEM [1]) | CC50 (CCRF-CEM [7]) | ID50 (CCRF-CEM [8])
1 | COCCCCCCCCC/C=C/C(=O)O | 12% |  | 78% | 5% | 7% | 5 µM |  | > 80 µM |  | 
2 | COCCCCCCCCCC(O)CC(=O)O (centres undefined) | < 5% |  | 114% | < 5% | < 5% |  | 9 µM | 280 µM |  | 
3 | COCCCCCCCCCCC(F)C(=O)O (centres undefined) | 26% |  | 14% | < 5% | 14% |  |  | > 100 µM |  | inactive

Continued, in another order:

Row | MyristoylCoA (Homo sapiens) | IC50 (CCRF-CEM [2]) | MyristoylCoA (Pseudomonas) | Myristoylpeptide [3] | Myristoylpeptide [4] | IC50 (CCRF-CEM [5]) | IC50 (CCRF-CEM [6]) | Structure (SMILES) | CC50 (CCRF-CEM [1]) | CC50 (CCRF-CEM [7]) | ID50 (CCRF-CEM [8])
4 | < 5% | 1 µM | 94% | 5% | < 5% |  |  | COCCCCCCCCCC(F)CC(=O)O (centres undefined) | 300 µM |  | 
5 | 75% | 1 µM | 175% | 84% | 109% |  |  | COCCCCCCCCCCCCC(=O)O |  | 80 µM | 
6 |  |  |  | < 5% | 107% | 77 µM |  | COCCCCCCCCC(O)CCC(=O)O (centres undefined) | > 400 µM |  | 
